Data taken from the NIST ThermoML archive (doi:10.1016/j.jct.2013.06.020).
Numbers after ± are expanded uncertainties.

Assays:
[1] = 298.15 K, 101.33 kPa, Liquid; for speed of sound: Sing-around technique in a fixed-path interferometer; for mass density: Vibrating tube method
[2] = mn = molality of the nth substance listed, in mol/kg; settings: 298.15 K, 101 kPa, Liquid; for speed of sound: Sing-around technique in a fixed-path interferometer; for mass density: Vibrating tube method

CCOC(=O)C(C)O (racemic) [DL-ethyl lactate]
[1]
Settings | mass density [kg/m3] | speed of sound [m/s]
– | 1028.37 ± 0.9 | 1279.7 ± 2.3

O=Cc1ccco1 [2-furaldehyde]
[1]
Settings | mass density [kg/m3] | speed of sound [m/s]
– | 1154.81 ± 0.36 | 1440.2 ± 1.6

OCc1ccco1 [2-hydroxymethylfuran]
[1]
Settings | mass density [kg/m3] | speed of sound [m/s]
– | 1130.27 ± 0.34 | 1449.8 ± 1.6

OCC1CCCO1 (stereo not given) [2-tetrahydrofurylmethanol]
[1]
Settings | mass density [kg/m3] | speed of sound [m/s]
– | 1050.75 ± 0.27 | 1485.2 ± 1.6

Cc1ccc(C=O)o1 [5-methylfurfural]
[1]
Settings | mass density [kg/m3] | speed of sound [m/s]
– | 1103.2 ± 0.31 | 1447 ± 1.6

CCCCOC(=O)C(C)O (stereo not given) [butyl 2-hydroxypropanoate]
[1]
Settings | mass density [kg/m3] | speed of sound [m/s]
– | 977.283 ± 0.81 | 1285 ± 2.3

CCCCOC(=O)CCC(C)=O [butyl levulinate]
[1]
Settings | mass density [kg/m3] | speed of sound [m/s]
– | 969.935 ± 0.8 | 1341.3 ± 2.3

CCOC(=O)CCC(C)=O [ethyl levulinate]
[1]
Settings | mass density [kg/m3] | speed of sound [m/s]
– | 1007.54 ± 0.24 | 1351.2 ± 1.6

COC(=O)C(C)O (stereo not given) [methyl 2-hydroxypropanoate]
[1]
Settings | mass density [kg/m3] | speed of sound [m/s]
– | 1087.43 ± 1 | 1338.8 ± 2.3

COC(=O)CCC(C)=O [methyl levulinate]
[1]
Settings | mass density [kg/m3] | speed of sound [m/s]
– | 1045.4 ± 0.93 | 1386.2 ± 2.3

COC(=O)CCC(C)=O [methyl levulinate] + O
[2]
Settings | mass density [kg/m3] | speed of sound [m/s]
m1 = 0.0322 | 997.582 ± 0.11 | 1499.2 ± 1.2
m1 = 0.0375 | 997.646 ± 0.11 | 1499.4 ± 1.2
m1 = 0.0399 | 997.675 ± 0.11 | 1499.7 ± 1.2
m1 = 0.042 | 997.701 ± 0.11 | 1499.7 ± 1.2
m1 = 0.0537 | 997.774 ± 0.11 | 1500 ± 1.2
m1 = 0.0724 | 998.063 ± 0.11 | 1500.9 ± 1.2
m1 = 0.0737 | 998.08 ± 0.11 | 1501 ± 1.2
m1 = 0.1127 | 998.543 ± 0.11 | 1503.2 ± 1.2
m1 = 0.1571 | 999.079 ± 0.11 | 1505.7 ± 1.2
m1 = 0.1949 | 999.523 ± 0.11 | 1507.7 ± 1.2
m1 = 0.2491 | 1000.15 ± 0.11 | 1510.6 ± 1.2
m1 = 0.3297 | 1001.08 ± 0.11 | 1514.6 ± 1.2
m1 = 0.3905 | 1001.76 ± 0.11 | 1517.5 ± 1.2
m1 = 0.4721 | 1002.66 ± 0.11 | 1521.3 ± 1.2
m1 = 0.5562 | 1003.58 ± 0.11 | 1525.1 ± 1.2
m1 = 0.6293 | 1004.35 ± 0.11 | 1527.8 ± 1.2
m1 = 0.7107 | 1005.19 ± 0.11 | 1530.9 ± 1.2
m1 = 0.7782 | 1005.87 ± 0.11 | 1533.4 ± 1.2
m1 = 0.9597 | 1007.31 ± 0.11 | 1539.2 ± 1.3
m1 = 1.161 | 1008.76 ± 0.12 | 1544.8 ± 1.3

C=CC(=O)OC [methyl propenoate]
[1]
Settings | mass density [kg/m3] | speed of sound [m/s]
– | 949.174 ± 0.23 | 1169 ± 1.5

C=CC(=O)OC [methyl propenoate] + O
[2]
Settings | mass density [kg/m3] | speed of sound [m/s]
m1 = 0.0393 | 997.315 ± 0.11 | 1498.3 ± 1.2
m1 = 0.0445 | 997.337 ± 0.11 | 1498.7 ± 1.2
m1 = 0.0475 | 997.348 ± 0.11 | 1498.9 ± 1.2
m1 = 0.0543 | 997.381 ± 0.11 | 1499.1 ± 1.2
m1 = 0.0631 | 997.409 ± 0.11 | 1499.5 ± 1.2
m1 = 0.0712 | 997.451 ± 0.11 | 1499.9 ± 1.2
m1 = 0.0962 | 997.547 ± 0.11 | 1500.9 ± 1.2
m1 = 0.1341 | 997.677 ± 0.11 | 1502.1 ± 1.2
m1 = 0.1473 | 997.72 ± 0.11 | 1502.6 ± 1.2
m1 = 0.1826 | 997.809 ± 0.11 | 1503.8 ± 1.2
m1 = 0.2485 | 998.068 ± 0.11 | 1506.2 ± 1.2
m1 = 0.3666 | 998.512 ± 0.11 | 1510.6 ± 1.2
m1 = 0.4288 | 998.73 ± 0.11 | 1513.1 ± 1.2
m1 = 0.5131 | 999.004 ± 0.11 | 1516.7 ± 1.2
